Legend:
[1] = Half life in rat liver microsomes; type: ADME, Microsome
[2] = Half life in Beagle dog at 2 mg/kg, iv; type: ADME, organism-based, Canis lupus familiaris; set-up: dose 2 mg/kg, route intravenous; details: in vivo
[3] = Half life in Swiss Webster mouse at 2 mg/kg, iv; type: ADME, organism-based; set-up: dose 2 mg/kg, route intravenous; details: in vivo
[4] = Half life in Sprague-Dawley rat at 2 mg/kg, iv; type: ADME, organism-based; set-up: dose 2 mg/kg, route intravenous; details: in vivo
[5] = Volume of distribution at steady state in Beagle dog at 2 mg/kg, iv; type: ADME, organism-based, Canis lupus familiaris; set-up: dose 2 mg/kg, route intravenous; details: in vivo, read-out: Vdss
[6] = Volume of distribution at steady state in Sprague-Dawley rat at 2 mg/kg, iv; type: ADME, organism-based; set-up: dose 2 mg/kg, route intravenous; details: in vivo, read-out: Vdss
[7] = Volume of distribution at steady state in Swiss Webster mouse at 2 mg/kg, iv; type: ADME, organism-based; set-up: dose 2 mg/kg, route intravenous; details: in vivo, read-out: Vdss
[8] = Clearance in Beagle dog at 2 mg/kg, iv; type: ADME, organism-based, Canis lupus familiaris; set-up: dose 2 mg/kg, route intravenous; details: in vivo
[9] = Clearance in Sprague-Dawley rat at 2 mg/kg, iv; type: ADME, organism-based; set-up: dose 2 mg/kg, route intravenous; details: in vivo
[10] = Clearance in Swiss Webster mouse at 2 mg/kg, iv; type: ADME, organism-based; set-up: dose 2 mg/kg, route intravenous; details: in vivo
[11] = Cmax in Swiss Webster mouse at 10 mg/kg, po; type: ADME, organism-based; set-up: dose 10 mg/kg, route oral; details: in vivo
[12] = Cmax in Sprague-Dawley rat at 10 mg/kg, po; type: ADME, organism-based; set-up: dose 10 mg/kg, route oral; details: in vivo
[13] = Cmax in Beagle dog at 10 mg/kg, po; type: ADME, organism-based, Canis lupus familiaris; set-up: dose 10 mg/kg, route oral; details: in vivo
[14] = AUClast in Swiss Webster mouse at 10 mg/kg, po; type: ADME, organism-based; set-up: time 0 - last, dose 10 mg/kg, route oral; details: plasma
[15] = AUClast in Sprague-Dawley rat at 10 mg/kg, po; type: ADME, organism-based; set-up: time 0 - last, dose 10 mg/kg, route oral; details: plasma
[16] = AUClast in Beagle dog at 10 mg/kg, po; type: ADME, organism-based, Canis lupus familiaris; set-up: time 0 - last, dose 10 mg/kg, route oral; details: plasma
[17] = Oral bioavailability in Swiss Webster mouse at 10 mg/kg; type: ADME, organism-based; details: in vivo
[18] = Oral bioavailability in Sprague-Dawley rat at 10 mg/kg; type: ADME, organism-based; details: in vivo
[19] = Oral bioavailability in Beagle dog at 10 mg/kg; type: ADME, organism-based, Canis lupus familiaris; details: in vivo
[20] = Ratio of drug level in brain to plasma in Swiss Webster mouse at 10 mg/kg, po; type: ADME, organism-based; set-up: dose 10 mg/kg, route oral
[21] = Ratio of drug level in brain to plasma in Sprague-Dawley rat at 10 mg/kg, po; type: ADME, organism-based; set-up: dose 10 mg/kg, route oral
[22] = Cmax in Swiss Webster mouse brain at 10 mg/kg, po; type: ADME, organism-based; set-up: dose 10 mg/kg, route oral
[23] = Cmax in Sprague-Dawley brain rat at 10 mg/kg, po; type: ADME, organism-based; set-up: dose 10 mg/kg, route oral

Question: With `COc1ccc(C(=O)N2CCN(c3ccccn3)CC2)cc1C#Cc1cccc(C)n1` as the compound, how does the half-life [1] read?
Answer: Its half-life is 11 min.

Question: For `Cc1ccc(C(=O)N2CCN(c3ccccn3)CC2)cc1C#Cc1ccccc1`, which half-life [1] is on record?
Answer: The half-life was 13 min.

Question: For `COc1ccc(C(=O)N2CCN(c3cnccn3)CC2)cc1C#Cc1ccccc1`, which half-life [1] is on record?
Answer: Its half-life is 5 min.

Question: With `COc1ccc(C(=O)N2CCN(c3ccccn3)CC2)cc1C#Cc1ccccn1` as the compound, how does the half-life [2] read?
Answer: Its half-life is 126 min.

Question: And the half-life [3]?
Answer: Its half-life is 12 min.

Question: What about the half-life [4] of the same compound?
Answer: Its half-life is 60 min.

Question: What about the Vd [5] of the same compound?
Answer: The Vd was 0.5 L/kg.

Question: What about the Vd [6] of the same compound?
Answer: Its Vd is 0.9 L/kg.

Question: And the Vd [7]?
Answer: Its Vd is 3.2 L/kg.

Question: What about the clearance [8] of the same compound?
Answer: The clearance was 3 mL/min/kg.

Question: What about the clearance [9] of the same compound?
Answer: The clearance was 12 mL/min/kg.

Question: What about the clearance [10] of the same compound?
Answer: The clearance was 121 mL/min/kg.

Question: What about the half-life [1] of the same compound?
Answer: Its half-life is 23 min.

Question: What about the Cmax [11] of the same compound?
Answer: Its Cmax is 3.5 µM.

Question: What about the Cmax [12] of the same compound?
Answer: The Cmax was 11.9 µM.

Question: And the Cmax [13]?
Answer: Its Cmax is 16.4 µM.

Question: And the AUC(0-t) [14]?
Answer: Its AUC(0-t) is 519 ng·h/mL.

Question: And the AUC(0-t) [15]?
Answer: Its AUC(0-t) is 13400 ng·h/mL.

Question: And the AUC(0-t) [16]?
Answer: The AUC(0-t) was 47100 ng·h/mL.

Question: And the bioavailability [17]?
Answer: Its bioavailability is 20%.

Question: And the bioavailability [18]?
Answer: Its bioavailability is 85%.

Question: And the bioavailability [19]?
Answer: Its bioavailability is 80%.

Question: What about the Kp [20] of the same compound?
Answer: Its Kp is 0.31.

Question: What about the Kp [21] of the same compound?
Answer: Its Kp is 0.15.

Question: And the Cmax [22]?
Answer: Its Cmax is 1.09 µM.

Question: And the Cmax [23]?
Answer: Its Cmax is 1.79 µM.

Question: For `COc1ccc(C(=O)N2CCN(c3ccccn3)CC2)cc1C#Cc1nccs1`, which half-life [1] is on record?
Answer: The half-life was 15 min.

Question: For `O=C(c1cccc(C#CCc2ccccc2)c1)N1CCN(c2ccccn2)CC1`, which half-life [1] is on record?
Answer: Its half-life is 4 min.

Question: Which half-life [1] does the source give for `O=C(c1cccc(C#Cc2ccccc2)c1)N1CCN(c2cnccn2)CC1` here?
Answer: The half-life was 4 min.

Question: With `O=C(c1cccc(C#Cc2ccccn2)c1)N1CCN(c2ccccn2)CC1` as the compound, how does the half-life [1] read?
Answer: The half-life was 5 min.

Question: With `Cc1ccc(N2CCN(C(=O)c3cccc(C#Cc4ccccc4)c3)CC2)nc1` as the compound, how does the half-life [1] read?
Answer: Its half-life is 13 min.

Question: With `Cc1ccc(C(=O)N2CCN(c3cnccn3)CC2)cc1C#Cc1ccccc1` as the compound, how does the half-life [1] read?
Answer: The half-life was 9 min.

Question: With `COc1cccc(C#Cc2cccc(C(=O)N3CCN(c4ccccn4)CC3)c2)c1` as the compound, how does the half-life [1] read?
Answer: Its half-life is 3 min.

Question: With `COc1ccc(C(=O)N2CCN(c3ccncn3)CC2)cc1C#Cc1ccccn1` as the compound, how does the half-life [1] read?
Answer: Its half-life is 18 min.

Question: With `COc1ccc(C(=O)N2CCN(c3ccncn3)CC2)cc1C#Cc1cccc(Cl)c1` as the compound, how does the half-life [1] read?
Answer: The half-life was 7 min.

Question: Which half-life [1] does the source give for `Cc1ccc(C#Cc2cccc(C(=O)N3CCN(c4ccccn4)CC3)c2)cc1` here?
Answer: Its half-life is 5 min.

Question: Which half-life [1] does the source give for `COc1ccc(C(=O)N2CCN(c3ccccn3)CC2)cc1C#Cc1ccccc1` here?
Answer: The half-life was 13 min.

Question: Which half-life [1] does the source give for `COc1ccc(C(=O)N2CCN(c3ccc(C)cn3)CC2)cc1C#Cc1ccccn1` here?
Answer: The half-life was over 30 min.

Question: Which half-life [1] does the source give for `O=C(c1cccc(C#Cc2ccccc2)c1)N1CCN(c2ccncn2)CC1` here?
Answer: The half-life was 3 min.

Question: With `COc1ccc(C(=O)N2CCN(c3ccc(C)cn3)CC2)cc1C#Cc1ccccc1` as the compound, how does the half-life [1] read?
Answer: The half-life was 16 min.

Question: With `Nc1cccc(C#Cc2cccc(C(=O)N3CCN(c4ccccn4)CC3)c2)c1` as the compound, how does the half-life [1] read?
Answer: The half-life was 2 min.

Question: For `COc1ccc(C(=O)N2CCN(c3ccncn3)CC2)cc1C#Cc1ccccc1`, which half-life [1] is on record?
Answer: The half-life was 21 min.

Question: For `O=C(c1cccc(C#Cc2ccccc2)c1)N1CCN(c2ccccn2)CC1`, which half-life [1] is on record?
Answer: Its half-life is 3 min.

Question: Which half-life [1] does the source give for `COc1ccc(C#Cc2cccc(C(=O)N3CCN(c4ccccn4)CC3)c2)cc1` here?
Answer: The half-life was 4 min.

Source: ChEMBL document CHEMBL1641557, “3-(Pyridin-2-yl-ethynyl)benzamide metabotropic glutamate receptor 5 negative allosteric modulators: hit to lead studies” (Bioorg Med Chem Lett, 2011)
